Experimental data: patent US20240335542A1, “NANOMATERIALS COMPRISING DISULFIDES” (Beam Therapeutics Inc., priority 2021, published 2024)

Experiments:
[1] = LNP hydrodynamic diameter and polydispersity index by dynamic light scattering (DLS); format: physicochemical; settings: LNP of 47.5% ionizable lipid: 40% cholesterol: 2.5% PEG-2000 DMG: 10% DPSC, N/P 4-8
Procedure: (§1) LNPs were prepared with 47.5% Ionizable Lipid (e.g., a compound provided herein): 40% cholesterol: 2.5% PEG-2000 DMG; and 10% DPSC and an N/P ratio range of 4-8. LNPs were formed by microfluidic mixing of the lipid and NA solutions using a Precision Nanosystems NanoAssemblr Spark or Benchtop series Instruments, according to the manufacturers protocol. A ratio of aqueous to organic solvent of approximately 2:1 or 3:1 was maintained during mixing using differential flow rates. After mixing, LNPs were collected, diluted in phosphate buffer saline (PBS) or Tris-buffered saline (TBS) (approximately 1:1 v/v). Further buffer exchange was conducted using dialysis in PBS or TBS at 4° C. for 4 to 24 hours against a 20 kDa filter. After this initial dialysis, each individual LNP preparation was characterized via dynamic light scattering (DLS) to measure the size (e.g., diameter) and polydispersity. LNPs falling within specific diameter and polydispersity ranges were pooled, and further dialyzed against PBS or TBS at 4° C. for 1 to 4 hours against a 100 kDa dialysis cassette. After the second dialysis, LNPs were sterile filtered using 0.22 μm filter and stored at 4° C. for further use.
LNP hydrodynamic diameter and polydispersity index (PDI) were measured using high throughput dynamic light scattering (DLS) (Stunner, Unchained Labs). LNPs were diluted 1×TBS or PBS to an appropriate concentration and analyzed.

[2] = RNA encapsulation efficiency of LNPs by Ribogreen assay; format: physicochemical; settings: LNP of 47.5% ionizable lipid: 40% cholesterol: 2.5% PEG-2000 DMG: 10% DPSC, N/P 4-8
Procedure: as §1
RNA concentration and encapsulation efficiency were determined by Ribogreen assay (BioTek Synergy LX plate reader).

ALAS1 target site = experiment: In vivo base editing with LNP carrying adenine base editor mRNA and sgRNA, targeted deep sequencing; settings: LNP with ABE mRNA + sgRNA, 0.15 mg/kg total RNA, tail vein, Balb/C mice, four to six days post-dose
Procedure: Exemplary LNP preparations were selected to determine each preparation's ability to perform base editing in a Balb/C mouse model as described herein.
Lipid nanoparticle components were dissolved in 100% ethanol at specified lipid component molar ratios. mRNA encoding an adenine base editor and a chemically-modified sgRNA was dissolved at a mass ratio of 1:1 in 50 mM citrate, pH 4.0, resulting in a concentration of NA cargo of approximately 0.1 mg/mL.
LNP preparations were formulated with molar ratios of 47.5% Ionizable Lipid: 40% Cholesterol: 2.5% PEG2000-DMG: 10% DSPC total lipid to NA mass ratio of 6 to 12. […]
A 3:1 ratio of aqueous to organic solvent was maintained during mixing using differential flow rates. […] After this initial dialysis, each individual LNP preparation was characterized via dynamic light scattering (DLS) to measure size and polydispersity. pKa of a subpopulation of LNP preparations was measured via TNS assay. […]
Age-matched mice were also used to administer vehicle (1×TBS) via tail vein injection as a control. […] Base editing was determined by performing targeted deep sequencing analysis at the ALAS1 target site using extracted genomic DNA. […] Library size and concentration was confirmed by Fragment Analyzer (Agilent) and analyzed for whole genome sequencing using an Illumina HiSeq.

[3] = LNP biodistribution in mice, barcode fold above input (FAI) in tissues; format: in vivo; settings: pooled LNP IV tail vein, 4 hours post-dose, fold above input of barcode
Procedure: Male and female mice aged approximately 8-12 weeks were used for studies described by the present Example. Each mouse was temporarily restrained and pooled LNP was administered IV via tail vein injection in up to five animals per experiment. Age-matched mice was also used to administer vehicle (1×TBS) via tail vein injection in up to three animals per experiment. Additional routes of administration can also be conducted including intracerebral ventricular (ICV), intracisterna manga (ICM), intrathecal (IT), intramuscular (IM), nebulization, intranasal (IN), subcutaneous (SC), intraarticular, and intradermal (ID). At 4 hours post-dose, tissues including liver, spleen, bone marrow, testes, gastrocnemius, quadricep, lung, heart, kidney, and pancreas may be collected for analysis.
RNA from tissues were extracted using the Reliaprep RNA extraction kit, and libraries were prepared using the RNAseq kit, and sequenced on either a MiSeq or NextSeg500.
To screen for preferential LNP delivery to a target tissues, the relative abundance of each barcode in one or more target tissues was measured and compared to the relative abundance of each barcode to its corresponding relative input abundance to determine fold above input (FAI) for each barcode. If the FAI of a barcode in a target tissue is above a threshold or above the FAI of a different LNP in the same tissue, the LNP can be identified as preferentially delivering to the target tissue.
The FAI is the normalized relative abundance of a barcode in a selected sample as compared to its frequency in the input. The FAI of a barcode indicates how a LNP's abundance changes relative to the rest of the LNP pool. The FAI value of the barcode was calculated by normalizing the relative abundance in the barcode sequence counts in the isolated samples to its relative abundance in the administration input. […] The FAI then indicates the performance of an LNP relative to the input LNP composition.

Structure (SMILES) | Mean Diameter (nm) [1] | Mean PDI [1] | Mean Encapsulation Efficiency (%) [2] | base editing observed in liver (ALAS1 target site) | FAI (Liver) ([3]; liver) | FAI (Lung) ([3]; lung) | FAI (Spleen) ([3]; spleen)
CC/C=C\CCCCOC(CCCC(=O)Oc1ccc(CC(=O)OCCC2CCN(CCSSCCN3CCC(CCOC(=O)Cc4ccc(OC(=O)CCCC(OCCCC/C=C\CC)OCCCC/C=C\CC)cc4)CC3)CC2)cc1)OCCCC/C=C\CC [7-8, (((((disulfanediylbis(ethane-2,1-diyl))bis(piperidine-1,4-diyl))bis(ethane-2,1-diyl))bis(oxy))bis(2-oxoethane-2,1-diyl))bis(4,1-phenylene) bis(5,5-bis(((Z)-oct-5-en-1-yl)oxy)pentanoate)] | 74.9 nm | 0.08 | 87.7% | 13.7% |  |  | 
CC/C=C\CCCCOC(CCC(=O)Oc1ccc(CC(=O)OCCC2CCN(CCSSCCN3CCC(CCOC(=O)Cc4ccc(OC(=O)CCC(OCCCC/C=C\CC)OCCCC/C=C\CC)cc4)CC3)CC2)cc1)OCCCC/C=C\CC [7-9, (((((disulfanediylbis(ethane-2,1-diyl))bis(piperidine-1,4-diyl))bis(ethane-2,1-diyl))bis(oxy))bis(2-oxoethane-2,1-diyl))bis(4,1-phenylene) bis(4,4-bis(((Z)-oct-5-en-1-yl)oxy)butanoate)] | 72.1 nm | 0.09 | 88.2% |  |  |  | 
CCCCC/C=C\C/C=C\CCCCCCCCC(CCCCCCCC/C=C\C/C=C\CCCCC)OC(=O)CCCN(C)C [MC3, (6Z,9Z,28Z,31Z)-heptatriaconta-6,9,28,31-tetraen-19-yl 4-(dimethylamino) butanoate] |  |  |  |  | 0.50 | 1.02 | 1.46
